# Test results: patent publication US20260262643A1, “HERBICIDAL BENZOXAZINES” (FMC CORPORATION, priority 2022, published 2026)
# Columns and labels:
# [1] = system: ducksalad; assay: Test D flooded paddy test; type: in vivo, Heteranthera limosa; settings: 250 g ai/ha, applied to paddy water, visual rating after 13 to 14 days, scale 0 to 100 (0 no effect, 100 complete control)
# Method in brief: (§1)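 Compounds go straight into paddy water over 2-leaf plants in pots flooded to 3 cm. Greenhouse holding lasts 13 to 14 days. Injury is scored by eye against controls from 0 (none) to 100 (complete control).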
# [2] = system: corn; assay: Test C postemergence; type: in vivo, Zea mays; settings: 10 days
# Method in brief: (§2)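 Greenhouse herbicide screen, 10-day duration. Test chemicals in solvent/surfactant blend were sprayed onto soil at sowing (pre) or onto 2–10 cm seedlings at one to two leaves (post); injury scored visually against controls, 0 no effect to 100 complete control.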
# [3] = system: green foxtail; assay: Test C postemergence; type: in vivo, Setaria viridis; settings: 10 days
# Method in brief: as §2
# [4] = system: pigweed, palmer; assay: Test C postemergence; type: in vivo, Amaranthus palmeri; settings: 10 days
# Method in brief: as §2
# [5] = system: ryegrass, Italian; assay: Test C preemergence; type: in vivo, Lolium multiflorum; settings: 0 to 100 scale (0 no effect, 100 complete control)
# Method in brief: as §2
# [6] = system: blackgrass; assay: Test C preemergence; type: in vivo, Alopecurus myosuroides; settings: 0 to 100 scale (0 no effect, 100 complete control)
# Method in brief: as §2
# [7] = system: ryegrass, Italian; assay: Test C postemergence; type: in vivo, Lolium multiflorum; settings: 10 days
# Method in brief: as §2
# [8] = system: oat, wild; assay: Test C postemergence; type: in vivo, Avena fatua; settings: 10 days
# Method in brief: as §2
# [9] = system: rice; assay: Test D flooded paddy test; type: in vivo, Oryza sativa; settings: 250 g ai/ha, applied to paddy water, visual rating after 13 to 14 days, scale 0 to 100 (0 no effect, 100 complete control)
# Method in brief: as §1
# [10] = system: wheat; assay: Test C postemergence; type: in vivo, Triticum aestivum; settings: 10 days
# Method in brief: as §2
# [11] = system: oat, wild; assay: Test C preemergence; type: in vivo, Avena fatua; settings: 0 to 100 scale (0 no effect, 100 complete control)
# Method in brief: as §2
# [12] = system: sedge, umbrella; assay: Test D flooded paddy test; type: in vivo, Cyperus difformis; settings: 250 g ai/ha, applied to paddy water, visual rating after 13 to 14 days, scale 0 to 100 (0 no effect, 100 complete control)
# Method in brief: as §1
# [13] = system: wheat; assay: Test C preemergence; type: in vivo, Triticum aestivum; settings: 0 to 100 scale (0 no effect, 100 complete control)
# Method in brief: as §2
# [14] = system: soybean; assay: Test C preemergence; type: in vivo, Glycine max; settings: 0 to 100 scale (0 no effect, 100 complete control)
# Method in brief: as §2
# [15] = system: horseweed; assay: Test C postemergence; type: in vivo, Erigeron canadensis; settings: 10 days
# Method in brief: as §2
# [16] = system: barnyardgrass; assay: Test D flooded paddy test; type: in vivo, Echinochloa crus-galli; settings: 250 g ai/ha, applied to paddy water, visual rating after 13 to 14 days, scale 0 to 100 (0 no effect, 100 complete control)
# Method in brief: as §1
# [17] = system: pigweed, palmer; assay: Test C preemergence; type: in vivo, Amaranthus palmeri; settings: 0 to 100 scale (0 no effect, 100 complete control)
# Method in brief: as §2
# [18] = system: barnyardgrass; assay: Test C preemergence; type: in vivo, Echinochloa crusgalli; settings: 0 to 100 scale (0 no effect, 100 complete control)
# Method in brief: as §2
# [19] = system: green foxtail; assay: Test C preemergence; type: in vivo, Setaria viridis; settings: 0 to 100 scale (0 no effect, 100 complete control)
# Method in brief: as §2
# [20] = system: kochia; assay: Test C preemergence; type: in vivo, Bassia scoparia; settings: 0 to 100 scale (0 no effect, 100 complete control)
# Method in brief: as §2
# [21] = system: soybean; assay: Test C postemergence; type: in vivo, Glycine max; settings: 10 days
# Method in brief: as §2
# [22] = system: blackgrass; assay: Test C postemergence; type: in vivo, Alopecurus myosuroides; settings: 10 days
# Method in brief: as §2
# [23] = system: corn; assay: Test C preemergence; type: in vivo, Zea mays; settings: 0 to 100 scale (0 no effect, 100 complete control)
# Method in brief: as §2
# [24] = system: kochia; assay: Test C postemergence; type: in vivo, Bassia scoparia; settings: 10 days
# Method in brief: as §2
# [25] = system: ragweed; assay: Test C postemergence; type: in vivo, Ambrosia artemisiifolia; settings: 10 days
# Method in brief: as §2
# [26] = system: barnyardgrass; assay: Test C postemergence; type: in vivo, Echinochloa crusgalli; settings: 10 days
# Method in brief: as §2
# [27] = system: ragweed; assay: Test C preemergence; type: in vivo, Ambrosia artemisiifolia; settings: 0 to 100 scale (0 no effect, 100 complete control)
# Method in brief: as §2
# [28] = 125 g ai/ha, postemergence, 0 to 100 scale, 0 no effect, 100 complete control
# [29] = Postemergence, 500 g ai/ha, visual 0 to 100 scale (0 no effect, 100 complete control)
# [30] = Preemergence, 500 g ai/ha, visual rating after 10 days
# [31] = Test C, preemergence, 125 g ai/ha
structure (smiles),measurement,setting,value
COc1cc(C(=O)N2C[C@H](C)Oc3c(Cl)cccc32)cc(-n2cnc(C(C)(C)C)n2)c1 [Compound 213],"Plant response rating, Ducksalad (Flood)",[1],90
same,"Plant response rating, Corn",[2]; [28],10
same,"Plant response rating, Corn",[2]; [29],20
same,"Plant response rating, Foxtail, Green",[3]; [28],40
same,"Plant response rating, Foxtail, Green",[3]; [29],70
same,"Plant response rating, Pigweed, Palmer",[4]; [28],100
same,"Plant response rating, Pigweed, Palmer",[4]; [29],100
same,"Plant response rating, Ryegrass, Italian",[5]; [30],90
same,"Ryegrass, Italian plant response rating",[5]; [31],90
same,"Plant response rating, Blackgrass",[6]; [30],80
same,Blackgrass plant response rating,[6]; [31],60
same,"Plant response rating, Ryegrass, Italian",[7]; [28],30
same,"Plant response rating, Ryegrass, Italian",[7]; [29],60
same,"Plant response rating, Oat, Wild",[8]; [28],10
same,"Plant response rating, Oat, Wild",[8]; [29],20
same,"Plant response rating, Rice (Flood)",[9],0
same,"Plant response rating, Wheat",[10]; [28],20
same,"Plant response rating, Wheat",[10]; [29],20
same,"Plant response rating, Oat, Wild",[11]; [30],70
same,"Oat, Wild plant response rating",[11]; [31],10
same,"Plant response rating, Sedge, Umbrella (Flood)",[12],100
same,"Plant response rating, Wheat",[13]; [30],90
same,Wheat plant response rating,[13]; [31],10
same,"Plant response rating, Soybean",[14]; [30],100
same,Soybean plant response rating,[14]; [31],50
same,"Plant response rating, Horseweed",[15]; [28],20
same,"Plant response rating, Horseweed",[15]; [29],30
same,"Plant response rating, Barnyardgrass (Flood)",[16],20
same,"Plant response rating, Pigweed, Palmer",[17]; [30],100
same,"Pigweed, Palmer plant response rating",[17]; [31],100
same,"Plant response rating, Barnyardgrass",[18]; [30],100
same,Barnyardgrass plant response rating,[18]; [31],60
same,"Plant response rating, Foxtail, Green",[19]; [30],100
same,"Foxtail, Green plant response rating",[19]; [31],100
same,"Plant response rating, Kochia",[20]; [30],100
same,Kochia plant response rating,[20]; [31],30
same,"Plant response rating, Soybean",[21]; [28],100
same,"Plant response rating, Soybean",[21]; [29],100
same,"Plant response rating, Blackgrass",[22]; [28],0
same,"Plant response rating, Blackgrass",[22]; [29],70
same,"Plant response rating, Corn",[23]; [30],10
same,Corn plant response rating,[23]; [31],0
same,"Plant response rating, Kochia",[24]; [28],90
same,"Plant response rating, Kochia",[24]; [29],90
same,"Plant response rating, Ragweed",[25]; [28],30
same,"Plant response rating, Ragweed",[25]; [29],80
same,"Plant response rating, Barnyardgrass",[26]; [28],20
same,"Plant response rating, Barnyardgrass",[26]; [29],30
same,"Plant response rating, Ragweed",[27]; [30],30
same,Ragweed plant response rating,[27]; [31],0
